Results as given in ChEMBL document CHEMBL4316582, “Nitro-Group-Containing Drugs” (J Med Chem, 2019).
Converted amounts (≈) assume the structure as drawn.

Columns and labels:
SK-OV-3 = test: Cytotoxicity against human SKOV3 cells; assay type: functional, cell-based
[1] = system: Mycobacterium tuberculosis; test: Antitubercular activity against Mycobacterium tuberculosis H37Ra after 8 days by visual analysis; assay type: functional; conditions: 192 h
Quinone oxidoreductase = biological target: T1, Quinone oxidoreductase (Homo sapiens, UniProt Q08257); test: Inhibition of human Quinone oxidoreductase
T1 sequence (Q08257 whole entry): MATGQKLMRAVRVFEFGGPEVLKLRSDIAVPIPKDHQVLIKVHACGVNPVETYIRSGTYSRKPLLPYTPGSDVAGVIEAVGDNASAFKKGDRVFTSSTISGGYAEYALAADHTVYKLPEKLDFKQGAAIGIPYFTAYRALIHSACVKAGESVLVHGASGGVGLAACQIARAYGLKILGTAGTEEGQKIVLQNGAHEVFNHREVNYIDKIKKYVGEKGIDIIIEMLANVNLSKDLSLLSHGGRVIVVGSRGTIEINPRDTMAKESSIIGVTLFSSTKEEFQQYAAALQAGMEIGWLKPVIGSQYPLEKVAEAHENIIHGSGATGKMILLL

NCI-H460 [2] = test: Antiproliferative activity against human NCI-H460 cells in presence of N2; assay type: functional, cell-based
NCI-H460 [3] = test: Antiproliferative activity against human NCI-H460 cells in presence of O2; assay type: functional, cell-based
NCI-H460 [4] = test: Antiproliferative activity against human NCI-H460 cells; assay type: functional, cell-based
HT-29 = test: Cytotoxicity against human HT-29 cells assessed as reduction in cell viability after 2 hrs by Alamar blue assay; assay type: functional, cell-based; conditions: HT-29, 2 h
NCI-H460 [5] = test: Cytotoxicity against human NCI-H460 cells assessed as reduction in cell viability after 2 hrs by Alamar blue assay; assay type: functional, cell-based; conditions: NCI-H460, 2 h
[6] = biological target: Epidermal growth factor receptor (Homo sapiens, UniProt P00533); test: Inhibition of erbB1 (unknown origin) using FRET-capable peptide substrate by FRET assay
[7] = Cytotoxicity against human MiaPaCa cells assessed as reduction in cell viability after 2 hrs by Alamar blue assay; assay type: functional, cell-based; conditions: MIA PaCa-2, 2 h
[8] = system: Mycobacterium tuberculosis; test: Antitubercular activity against drug-sensitive Mycobacterium tuberculosis; assay type: functional
[9] = system: Mycobacterium tuberculosis; test: Antitubercular activity against Mycobacterium tuberculosis; assay type: functional
NCI-H460 [10] = test: Cytotoxicity against human NCI-H460 cells assessed as reduction in cell viability after 2 hrs under normoxic conditions by Alamar blue assay; assay type: functional, cell-based; conditions: NCI-H460, 2 h
NCI-H460 [11] = test: Cytotoxicity against human NCI-H460 cells assessed as reduction in cell viability after 2 hrs under hypoxic conditions by Alamar blue assay; assay type: functional, cell-based; conditions: NCI-H460, 2 h
NCI-H460 [12] = test: Ratio of IC50 for antiproliferative activity against human NCI-H460 cells in presence of O2 to antiproliferative activity against human NCI-H460 cells in presence of N2; assay type: functional
Hep 3B2 [13] = test: Cytotoxicity against human Hep3B cells after 24 hrs by MTS assay; assay type: functional, cell-based
Hep 3B2 [14] = test: Cytotoxicity against human Hep3B cells after 24 hrs under hypoxic condition by MTS assay; assay type: functional, cell-based
[15] = biological target: T2, Oxygen-insensitive NAD(P)H nitroreductase (Escherichia coli K-12, UniProt P38489); test: Susbtrate activity at Escherichia coli nitroreductase assessed as half life; assay type: ADME
T2 sequence (P38489 whole entry): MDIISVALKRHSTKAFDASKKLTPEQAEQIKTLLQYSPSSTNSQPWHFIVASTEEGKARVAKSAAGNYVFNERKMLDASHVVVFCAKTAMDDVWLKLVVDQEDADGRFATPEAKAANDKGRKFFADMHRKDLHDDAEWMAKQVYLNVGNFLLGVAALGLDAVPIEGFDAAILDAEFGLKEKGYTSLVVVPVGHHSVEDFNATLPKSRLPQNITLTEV

[16] = biological target: T2, Oxygen-insensitive NAD(P)H nitroreductase; test: Inhibition of Escherichia coli nitroreductase expressed in human HCT116 cells; assay type: cell-based
[17] = Inhibition of Escherichia coli nitroreductase F179 mutant

Sequence of Epidermal growth factor receptor (P00533 whole entry): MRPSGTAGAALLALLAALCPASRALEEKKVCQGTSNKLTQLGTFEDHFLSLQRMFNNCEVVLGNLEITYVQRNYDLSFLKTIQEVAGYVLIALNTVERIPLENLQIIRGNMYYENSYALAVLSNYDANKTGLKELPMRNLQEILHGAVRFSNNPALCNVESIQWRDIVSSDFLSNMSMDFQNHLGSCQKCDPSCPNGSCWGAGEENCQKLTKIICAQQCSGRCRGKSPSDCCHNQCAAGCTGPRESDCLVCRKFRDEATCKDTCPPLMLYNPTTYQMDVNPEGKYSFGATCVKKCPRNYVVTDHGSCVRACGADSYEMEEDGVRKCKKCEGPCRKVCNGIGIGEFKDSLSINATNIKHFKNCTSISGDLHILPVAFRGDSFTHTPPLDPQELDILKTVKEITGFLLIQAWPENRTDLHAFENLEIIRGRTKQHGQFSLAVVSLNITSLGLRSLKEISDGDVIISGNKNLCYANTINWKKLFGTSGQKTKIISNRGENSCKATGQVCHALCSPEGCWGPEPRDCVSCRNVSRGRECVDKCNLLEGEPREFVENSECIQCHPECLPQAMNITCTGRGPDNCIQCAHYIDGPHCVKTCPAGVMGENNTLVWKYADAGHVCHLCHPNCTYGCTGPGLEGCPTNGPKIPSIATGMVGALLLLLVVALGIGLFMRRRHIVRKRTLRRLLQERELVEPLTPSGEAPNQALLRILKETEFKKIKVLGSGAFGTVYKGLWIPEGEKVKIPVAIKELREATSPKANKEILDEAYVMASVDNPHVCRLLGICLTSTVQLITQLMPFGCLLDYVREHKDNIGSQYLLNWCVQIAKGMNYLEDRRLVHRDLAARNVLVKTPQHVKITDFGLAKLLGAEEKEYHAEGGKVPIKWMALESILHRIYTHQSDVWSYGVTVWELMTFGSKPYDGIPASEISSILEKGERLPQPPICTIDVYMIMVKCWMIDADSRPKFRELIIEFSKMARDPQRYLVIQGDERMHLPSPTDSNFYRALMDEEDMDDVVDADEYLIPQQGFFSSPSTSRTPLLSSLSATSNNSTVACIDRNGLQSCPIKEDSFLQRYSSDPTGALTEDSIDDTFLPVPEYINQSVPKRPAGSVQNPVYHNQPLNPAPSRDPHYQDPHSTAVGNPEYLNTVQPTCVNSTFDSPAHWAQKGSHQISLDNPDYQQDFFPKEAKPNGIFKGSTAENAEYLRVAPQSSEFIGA

With `CC(OP(N)(=O)N(CCCl)CCCl)c1ccc([N+](=O)[O-])cc1` (stereo unspecified) the IC50 (SK-OV-3) was 1800 nM.

For `COc1cc([N+](=O)[O-])ccc1COP(N)(=O)N(CCCl)CCCl` (stereo unspecified), the IC50 (SK-OV-3) was 1800 nM.

Molecule `COc1cc(COP(N)(=O)N(CCCl)CCCl)ccc1[N+](=O)[O-]` (stereo unspecified) has an IC50 (SK-OV-3) of 3100 nM.

With `Cc1cc(COP(N)(=O)N(CCCl)CCCl)ccc1[N+](=O)[O-]` (stereo unspecified) the IC50 (SK-OV-3) was 3300 nM.

For `NP(=O)(OCc1ccc([N+](=O)[O-])cc1)N(CCCl)CCCl` (stereo unspecified), the IC50 (SK-OV-3) was 1100 nM.

For `COc1ccc(CNC(=O)c2ccc([N+](=O)[O-])o2)cc1OC`, the MIC [1] was 0.2 µM (≈ 0.0613 µg/mL).

With `O=[N+]([O-])c1ccc(C2CCOP(=O)(N(CCCl)CCCl)N2)cc1` (stereo unspecified) the IC50 (Quinone oxidoreductase) was 48 µM.

Work on `COC(=O)c1cc(COP(N)(=O)N(CCCl)CCCl)ccc1[N+](=O)[O-]` (stereo unspecified) yielded an IC50 (SK-OV-3) of 2100 nM.

In the case of `Cn1c(COP(=O)(N(CCCl)CCCl)N(CCCl)CCCl)ccc1[N+](=O)[O-]`, the IC50 (NCI-H460 [2]) is reported as 7 nM, the IC50 (NCI-H460 [3]) is reported as 0.85 µM and the IC50 (NCI-H460 [4]) is reported as > 1000 nM.

`CC#Cc1c(OC)ccc2c(C(=O)c3cc(OC)c(OC)c(OC)c3)nn(C[N+](C)(C)Cc3c(CC)nc([N+](=O)[O-])n3C)c12` showed an IC50 (HT-29) of 9 nM and an IC50 (NCI-H460 [5]) of 42 nM.

With `C[N+](C)(C/C=C/C(=O)Nc1ccc2ncnc(Nc3cccc(Br)c3)c2c1)Cc1ccc([N+](=O)[O-])cc1` the IC50 [6] was 0.22 to 0.56 nM.

`CC#Cc1c(OC)ccc2c(C(=O)c3cc(OC)c(OC)c(OC)c3)nn(C[N+](C)(C)Cc3c(-c4ccccc4)nc([N+](=O)[O-])n3C)c12` gave an IC50 (HT-29) of 6 nM, an IC50 [7] of 16 nM and an IC50 (NCI-H460 [5]) of 12 nM.

With `O=[N+]([O-])C1CN2C[C@H](OCc3ccc(OC(F)(F)F)cc3)COC2=N1` (stereo partly specified) the MIC [8] was 0.039 to 0.531 µg/mL (≈ 0.108 to 1.47 µM) and the MIC [9] was < 2.8 µM.

In the case of `[O-]/[N+](O)=C1/CN2C[C@H](OCc3ccc(OC(F)(F)F)cc3)COC2=N1`, the MIC [8] is reported as 0.039 to 0.531 µg/mL (≈ 0.108 to 1.47 µM) and the MIC [9] is reported as < 2.8 µM.

`CC#Cc1c(OC)ccc2c(C(=O)c3cc(OC)c(OC)c(OC)c3)nn(C[N+](C)(C)Cc3c(Br)nc([N+](=O)[O-])n3C)c12` gave an IC50 (HT-29) of 10 nM, an IC50 [7] of 28 nM and an IC50 (NCI-H460 [5]) of 28 nM.

`COc1cccc2c1C(=O)c1c(O)c3c(c(O)c1C2=O)C[C@@](O)(C(C)=O)C[C@@H]3O[C@H]1C[C@H](NCCCCn2ccnc2[N+](=O)[O-])[C@H](O)[C@H](C)O1` gave an IC50 (NCI-H460 [10]) of 5.7 µM and an IC50 (NCI-H460 [11]) of 4 nM.

For `NC(=O)c1cc([N+](=O)[O-])cnc1N1CC1`, the IC50 (NCI-H460 [2]) was 9300 nM, the IC50 (NCI-H460 [3]) was 198 µM and the “Ratio IC50” value (NCI-H460 [12]) was 21.3.

`CC#Cc1c(OC)ccc2c(C(=O)c3cc(OC)c(OC)c(OC)c3)nn(C[N+](C)(C)Cc3c(-c4ccc(F)cc4)nc([N+](=O)[O-])n3C)c12` showed an IC50 (HT-29) of 25 nM, an IC50 [7] of 25 nM and an IC50 (NCI-H460 [5]) of 31 nM.

`Cn1cc([N+](=O)[O-])nc1C[N+](C)(C)C/C=C/C(=O)Nc1ccc2ncnc(Nc3cccc(Br)c3)c2c1` gave an IC50 [6] of 0.22 to 0.56 nM.

With `COc1ccc(C[C@@H](C)[C@@H](C)Cc2ccc(OC)c(OCCOCCOCCOCCn3ccnc3[N+](=O)[O-])c2)cc1OC` the IC50 (Hep 3B2 [13]) was 12.6 µM and the IC50 (Hep 3B2 [14]) was 53.2 µM.

In the case of `NC(=O)c1ccnc(N2CC2)c1[N+](=O)[O-]`, the IC50 (NCI-H460 [2]) is reported as 2700 nM, the IC50 (NCI-H460 [3]) is reported as 142 µM and the “Ratio IC50” value (NCI-H460 [12]) is reported as 52.5.

With `O=[N+]([O-])c1ccc2c(c1)NP(=O)(N(CCCl)CCCl)NC2` (stereo unspecified) the half-life [15] was 7.8 min.

Work on `Cn1ncc([N+](=O)[O-])c1C[N+](C)(C)C/C=C/C(=O)Nc1ccc2ncnc(Nc3cccc(Br)c3)c2c1` yielded an IC50 [6] of 0.22 to 0.56 nM.

With `O=[N+]([O-])c1ccc2c(c1)OP(=O)(N(CCCl)CCCl)NC2` (stereo unspecified) the half-life [15] was 11 min, the IC50 [16] was 48 µM and the IC50 [17] was 61 µM. It also gave an IC50 (Quinone oxidoreductase) of 48 µM.

`COc1cccc2c1C(=O)c1c(O)c3c(c(O)c1C2=O)C[C@@](O)(C(C)=O)C[C@@H]3O[C@H]1C[C@H](N(COCCn2ccnc2[N+](=O)[O-])COCCn2ccnc2[N+](=O)[O-])[C@H](O)[C@H](C)O1` showed an IC50 (NCI-H460 [10]) of 20 µM and an IC50 (NCI-H460 [11]) of 50 nM.
